According to ChEMBL document CHEMBL2417447, “Synthesis and binary QSAR study of antitubercular quinolylhydrazides” (2013):
≈ marks a conversion by molar mass, not a printed value.

Experiments:
[1] = test system: Mycobacterium tuberculosis; assay: Antitubercular activity against Mycobacterium tuberculosis H37Rv ATCC 27294 after 5 to 8 days by microplate alamar blue assay; assay type: functional
[2] = test system: Mycobacterium tuberculosis; assay: Antimycobacterial activity against Mycobacterium tuberculosis H37Rv ATCC 27294 assessed as growth inhibition at 6.25 ug/ml after 5 to 8 days by microplate alamar blue assay relative to control; assay type: functional; details: read-out: GI

| SMILES | MIC [1] | inhibition of growth at 6.25 µg/mL [2] |
| --- | --- | --- |
| CO[C@H]1/C=C/O[C@@]2(C)Oc3c(C)c(O)c4c(O)c(c(/C=N/N5CCN(C)CC5)c(O)c4c3C2=O)NC(=O)/C(C)=C\C=C\[C@H](C)[C@H](O)[C@@H](C)[C@@H](O)[C@@H](C)[C@H](OC(C)=O)[C@@H]1C [RIFAMPIN] | 0.015 µg/mL (≈ 0.0182 µM) | 97% |
| O=C1Nc2c(Cl)cccc2C(=O)/C1=N/Nc1ccc(Cl)c(Cl)c1 | > 6.25 µg/mL | 21% |
| Cc1c(Cl)cccc1N/N=C1\C(=O)Nc2c(cccc2[N+](=O)[O-])C1=O | < 6.25 µg/mL | 56% |
| O=C1Nc2cc([N+](=O)[O-])ccc2C(=O)/C1=N/Nc1ccc(Br)cc1 | < 6.25 µg/mL | 100% |
| Cc1ccccc1N/N=C1/C(=O)c2ccccc2N(C)C1=O | < 6.25 µg/mL | 97% |
| Cc1ccc(N/N=C2\C(=O)Nc3c(ccc(Cl)c3Cl)C2=O)cc1 | < 6.25 µg/mL | 54% |
| O=C1Nc2ccc(Cl)cc2C(=O)/C1=N/Nc1ccc(Cl)c(Cl)c1 | < 6.25 µg/mL | 95% |
| O=C1Nc2cc(Cl)ccc2C(=O)/C1=N/Nc1ccccc1 | < 6.25 µg/mL | 76% |
| COc1ccc2c(c1)C(=O)/C(=N/Nc1ccccc1)C(=O)N2 | > 6.25 µg/mL | 0% |
| O=C1Nc2c(cccc2[N+](=O)[O-])C(=O)/C1=N/Nc1ccc(F)cc1 | > 6.25 µg/mL | 46% |
| O=C1Nc2cc(Cl)ccc2C(=O)/C1=N/Nc1ccc(F)cc1 | < 6.25 µg/mL | 50% |
| CC(=O)c1ccc(N/N=C2\C(=O)Nc3cc(Cl)ccc3C2=O)cc1 | > 6.25 µg/mL | 6% |
| CC(=O)c1ccc(N/N=C2\C(=O)Nc3c(Cl)cccc3C2=O)cc1 | > 6.25 µg/mL | 24% |
| O=C1Nc2c(Cl)cccc2C(=O)/C1=N/Nc1ccccc1Cl | > 6.25 µg/mL | 7% |
| O=C1Nc2ccc(Cl)cc2C(=O)/C1=N/Nc1ccc([N+](=O)[O-])cc1 | < 6.25 µg/mL | 91% |
| O=C1Nc2c(ccc(Cl)c2Cl)C(=O)/C1=N/Nc1cccc(F)c1 | < 6.25 µg/mL | 80% |
| O=C1Nc2cc(Cl)ccc2C(=O)/C1=N/Nc1cccc(Cl)c1 | > 6.25 µg/mL | 47% |
| CC(=O)c1ccc(N/N=C2\C(=O)Nc3c(ccc(Cl)c3Cl)C2=O)cc1 | < 6.25 µg/mL | 98% |
| Cc1cccc(N/N=C2\C(=O)Nc3cc(C)ccc3C2=O)c1 | < 6.25 µg/mL | 76% |
| O=C1Nc2c(cccc2[N+](=O)[O-])C(=O)/C1=N/Nc1cccc([N+](=O)[O-])c1 | < 6.25 µg/mL | 60% |
| Cc1ccc(N/N=C2\C(=O)Nc3c(Cl)ccc(Cl)c3C2=O)cc1 | > 6.25 µg/mL | 11% |
| O=C1Nc2ccc(Cl)cc2C(=O)/C1=N/Nc1ccccc1[N+](=O)[O-] | < 6.25 µg/mL | 64% |
| COc1ccc(N/N=C2\C(=O)Nc3c(cccc3[N+](=O)[O-])C2=O)c(C)c1 | > 6.25 µg/mL | 45% |
| O=C1Nc2c(ccc(Cl)c2Cl)C(=O)/C1=N/Nc1cccc([N+](=O)[O-])c1 | > 6.25 µg/mL | 27% |
| O=C1Nc2cc([N+](=O)[O-])ccc2C(=O)/C1=N/Nc1cccc(Cl)c1Cl | > 6.25 µg/mL | 21% |

| SMILES | MIC [1] | inhibition of growth at 6.25 µg/mL [2] |
| --- | --- | --- |
| Cc1cccc(N/N=C2\C(=O)Nc3c(C)cccc3C2=O)c1 | > 6.25 µg/mL | 31% |
| O=C1Nc2cc([N+](=O)[O-])ccc2C(=O)/C1=N/Nc1ccccc1-c1ccccc1 | < 6.25 µg/mL | 100% |
| O=C1Nc2c(ccc(Cl)c2Cl)C(=O)/C1=N/Nc1ccc([N+](=O)[O-])cc1 | < 6.25 µg/mL | 89% |
| COc1ccc(N/N=C2\C(=O)Nc3cc(Cl)ccc3C2=O)cc1 | > 6.25 µg/mL | 4% |
| O=C1Nc2ccc(Cl)cc2C(=O)/C1=N/Nc1ccc(Cl)cc1 | < 6.25 µg/mL | 98% |
| COc1ccc(N/N=C2\C(=O)Nc3c(cccc3[N+](=O)[O-])C2=O)cc1 | > 6.25 µg/mL | 37% |
| O=C1Nc2c(cccc2[N+](=O)[O-])C(=O)/C1=N/Nc1ccc([N+](=O)[O-])cc1 | < 6.25 µg/mL | 65% |
| Cc1cccc(N/N=C2\C(=O)Nc3c(ccc(Cl)c3Cl)C2=O)c1 | < 6.25 µg/mL | 62% |
| COc1ccc(N/N=C2\C(=O)Nc3c(Cl)ccc(Cl)c3C2=O)cc1 | > 6.25 µg/mL | 36% |
| O=C1Nc2c(Cl)cccc2C(=O)/C1=N/Nc1cccc([N+](=O)[O-])c1 | > 6.25 µg/mL | 24% |
| Cc1c(Cl)cccc1N/N=C1\C(=O)Nc2cc([N+](=O)[O-])ccc2C1=O | < 6.25 µg/mL | 98% |
| COc1ccc(N/N=C2\C(=O)Nc3c(Cl)ccc(Cl)c3C2=O)c(C)c1 | > 6.25 µg/mL | 40% |
| O=C1Nc2c(ccc(Cl)c2Cl)C(=O)/C1=N/Nc1cccc(Cl)c1 | < 6.25 µg/mL | 82% |
| O=C1Nc2c(cccc2[N+](=O)[O-])C(=O)/C1=N/Nc1ccc(Cl)c(Cl)c1 | < 6.25 µg/mL | 79% |
| COc1ccccc1N/N=C1\C(=O)Nc2cc([N+](=O)[O-])ccc2C1=O | < 6.25 µg/mL | 96% |
| O=C1Nc2c(cccc2[N+](=O)[O-])C(=O)/C1=N/Nc1ccccc1-c1ccccc1 | > 6.25 µg/mL | 35% |
| O=C1Nc2c(cccc2[N+](=O)[O-])C(=O)/C1=N/Nc1ccc(Cl)cc1 | < 6.25 µg/mL | 61% |
| Cc1ccc(N/N=C2\C(=O)Nc3cc([N+](=O)[O-])ccc3C2=O)cc1 | < 6.25 µg/mL | 92% |
| COc1ccc(N/N=C2\C(=O)Nc3c(ccc(Cl)c3Cl)C2=O)cc1 | > 6.25 µg/mL | 14% |
| O=C1Nc2c(ccc(Cl)c2Cl)C(=O)/C1=N/Nc1ccccc1 | < 6.25 µg/mL | 85% |
| O=C1Nc2c(Cl)cccc2C(=O)/C1=N/Nc1ccccc1 | < 6.25 µg/mL | 100% |
| Cc1cccc(N/N=C2\C(=O)Nc3ccccc3C2=O)c1 | > 6.25 µg/mL | 42% |
| Cc1cccc(N/N=C2\C(=O)Nc3c(cccc3[N+](=O)[O-])C2=O)c1 | < 6.25 µg/mL | 95% |
| O=C1Nc2cc([N+](=O)[O-])ccc2C(=O)/C1=N/Nc1ccc(F)cc1 | < 6.25 µg/mL | 100% |
| CN1C(=O)/C(=N\Nc2ccc([N+](=O)[O-])cc2)C(=O)c2ccccc21 | > 6.25 µg/mL | 20% |

| SMILES | MIC [1] | inhibition of growth at 6.25 µg/mL [2] |
| --- | --- | --- |
| Cc1cccc(C)c1N/N=C1\C(=O)Nc2ccc(Cl)cc2C1=O | > 6.25 µg/mL | 13% |
| Cc1cccc(N/N=C2\C(=O)Nc3cc([N+](=O)[O-])ccc3C2=O)c1 | > 6.25 µg/mL | 19% |
| COc1ccccc1N/N=C1\C(=O)Nc2c(cccc2[N+](=O)[O-])C1=O | > 6.25 µg/mL | 32% |
| CC(=O)c1ccc(N/N=C2\C(=O)Nc3ccc(Cl)cc3C2=O)cc1 | > 6.25 µg/mL | 29% |
| O=C1Nc2c(cccc2[N+](=O)[O-])C(=O)/C1=N/Nc1cccc(Cl)c1 | < 6.25 µg/mL | 82% |
| O=C1Nc2cc([N+](=O)[O-])ccc2C(=O)/C1=N/Nc1ccc(Cl)c(F)c1 | < 6.25 µg/mL | 70% |
| O=C1Nc2cc(Cl)ccc2C(=O)/C1=N/Nc1ccc([N+](=O)[O-])cc1 | > 6.25 µg/mL | 1% |
| COc1ccc(N/N=C2\C(=O)Nc3ccc(Cl)cc3C2=O)c(C)c1 | > 6.25 µg/mL | 12% |
| Cc1cccc2c1NC(=O)/C(=N\Nc1cccc(Cl)c1)C2=O | > 6.25 µg/mL | 39% |
| O=C1Nc2ccccc2C(=O)/C1=N/Nc1cccc(Cl)c1 | > 6.25 µg/mL | 41% |
| COc1ccc(N/N=C2\C(=O)c3cccc([N+](=O)[O-])c3N(C)C2=O)c(C)c1 | > 6.25 µg/mL | 40% |
| Cc1cccc(C)c1N/N=C1\C(=O)Nc2c(cccc2[N+](=O)[O-])C1=O | > 6.25 µg/mL | 22% |
| O=C1Nc2ccccc2C(=O)/C1=N/Nc1ccccc1 | < 6.25 µg/mL | 97% |
| CC(=O)c1ccc(N/N=C2/C(=O)c3ccccc3N(C)C2=O)cc1 | > 6.25 µg/mL | 20% |
| O=C1Nc2c(Cl)ccc(Cl)c2C(=O)/C1=N/Nc1cccc(Cl)c1 | > 6.25 µg/mL | 32% |
| Cc1ccc(N/N=C2\C(=O)Nc3c(Cl)cccc3C2=O)cc1 | > 6.25 µg/mL | 34% |
| CC(=O)c1ccc(N/N=C2\C(=O)Nc3c(cccc3[N+](=O)[O-])C2=O)cc1 | < 6.25 µg/mL | 89% |
| O=C1Nc2ccc(Cl)cc2C(=O)/C1=N/Nc1ccc(F)cc1 | < 6.25 µg/mL | 71% |
| Cc1ccc2c(c1)NC(=O)/C(=N\Nc1ccccc1Cl)C2=O | > 6.25 µg/mL | 31% |
| CN1C(=O)/C(=N\Nc2ccc(Cl)c(Cl)c2)C(=O)c2ccccc21 | > 6.25 µg/mL | 10% |
| O=C1Nc2c(Cl)ccc(Cl)c2C(=O)/C1=N/Nc1ccc(F)cc1 | < 6.25 µg/mL | 80% |
| Cc1cccc(N/N=C2\C(=O)Nc3c(cccc3[N+](=O)[O-])C2=O)c1C | > 6.25 µg/mL | 48% |
| CN1C(=O)/C(=N\Nc2ccc(Cl)cc2)C(=O)c2ccccc21 | > 6.25 µg/mL | 38% |
| O=C1Nc2c(cccc2[N+](=O)[O-])C(=O)/C1=N/Nc1ccccc1[N+](=O)[O-] | < 6.25 µg/mL | 80% |
| O=C1Nc2ccc(Cl)cc2C(=O)/C1=N/Nc1cccc([N+](=O)[O-])c1 | < 6.25 µg/mL | 96% |
